7 compounds from patent publication US8247377B2, “Non-steroidal glucocorticoid inhibitors and their use in treating inflammation, allergy and auto-immune conditions” (Glaxo Group Limited, priority 2006, dated 2012) can be followed below.

The target of this experiment is T1, glucocorticoid receptor (Homo sapiens, UniProt P04150).
T1 construct: a partially purified full length glucocorticoid receptor
T1 sequence (P04150 1-777): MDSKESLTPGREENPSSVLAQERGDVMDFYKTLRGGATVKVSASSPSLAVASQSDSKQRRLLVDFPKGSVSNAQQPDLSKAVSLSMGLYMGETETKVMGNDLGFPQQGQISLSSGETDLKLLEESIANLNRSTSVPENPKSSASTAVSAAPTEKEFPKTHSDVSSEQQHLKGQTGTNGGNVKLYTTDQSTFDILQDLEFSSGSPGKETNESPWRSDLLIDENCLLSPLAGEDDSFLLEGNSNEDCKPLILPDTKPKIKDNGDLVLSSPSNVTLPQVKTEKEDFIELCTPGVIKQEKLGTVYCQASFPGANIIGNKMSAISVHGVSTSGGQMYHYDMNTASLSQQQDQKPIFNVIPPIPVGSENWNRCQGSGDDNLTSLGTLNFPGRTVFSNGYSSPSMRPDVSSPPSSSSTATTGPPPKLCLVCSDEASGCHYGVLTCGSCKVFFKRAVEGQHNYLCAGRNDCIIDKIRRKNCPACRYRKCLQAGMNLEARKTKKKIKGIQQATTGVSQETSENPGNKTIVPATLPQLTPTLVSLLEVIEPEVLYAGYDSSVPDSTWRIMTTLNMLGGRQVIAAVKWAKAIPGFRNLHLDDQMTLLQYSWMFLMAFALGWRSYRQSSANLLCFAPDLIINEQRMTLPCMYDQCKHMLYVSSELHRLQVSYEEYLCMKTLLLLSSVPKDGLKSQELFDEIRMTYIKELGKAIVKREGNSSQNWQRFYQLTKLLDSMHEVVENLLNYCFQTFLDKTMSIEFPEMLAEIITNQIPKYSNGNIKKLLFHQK
The experiment can be described thus: Glucocorticoid receptor binding assay (fluorescence polarisation). The settings on record: competition with Alexa 555 fluorescently-labelled dexamethasone derivative, full length glucocorticoid receptor; read-out: glucocorticoid binding pIC50 (converted). The essentials: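 Compounds in DMSO incubated with fluorescent dexamethasone and partially purified full-length GR plus stabilising buffer components, 2 hrs at room temperature in the dark. Displacement read as decrease in fluorescence polarisation; pIC50 estimated from dose-response curves.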

On to `Nc1c(C(=O)NCC(O)(CNC(=O)c2c(Cl)cccc2Br)C(F)(F)F)cnn1-c1ccc(F)cc1` (single isomer, unassigned) [Example 12 Enantiomer 1, 5-Amino-N-[2-({[(2-bromo-6-chlorophenyl)carbonyl]amino}methyl)-3,3,3-trifluoro-2-hydroxypropyl]-1-(4-fluorophenyl)-1H-pyrazole-4-carboxamide], for which the IC50 is not above 316 nM.

With `Nc1c(C(=O)NCC(O)(CNC(=O)c2c(F)cccc2Br)C(F)(F)F)cnn1-c1ccc(F)cc1` (single isomer, unassigned) [Example 13 Enantiomer 1, 5-Amino-N-[2-({[(2-bromo-6-fluorophenyl)carbonyl]amino}methyl)-3,3,3-trifluoro-2-hydroxypropyl]-1-(4-fluorophenyl)-1H-pyrazole-4-carboxamide], the IC50 was not above 316 nM.

With `Nc1c(C(=O)NCC(O)(CNC(=O)c2c(Cl)cccc2OC(F)F)C(F)(F)F)cnn1-c1ccc(F)cc1` (single isomer, unassigned) [Example 14 Enantiomer 1, 5-Amino-N-(2-{[({2-chloro-6-[(difluoromethyl)oxy]phenyl}carbonyl)amino]methyl}-3,3,3-trifluoro-2-hydroxypropyl)-1-(4-fluorophenyl)-1H-pyrazole-4-carboxamide], the IC50 was not above 316 nM.

As for `Nc1c(C(=O)NCC(O)(CNC(=O)c2c(C(F)F)cccc2C(F)F)C(F)(F)F)cnn1-c1ccc(F)cc1` (single isomer, unassigned) [Example 43 Enantiomer 1, 5-Amino-N-{2-[({[2,6-bis(difluoromethyl)phenyl]carbonyl}amino)methyl]-3,3,3-trifluoro-2-hydroxypropyl}-1-(4-fluorophenyl)-1H-pyrazole-4-carboxamide], the IC50 was not above 316 nM.

As to `Nc1c(C(=O)NCC(O)(CNC(=O)c2c(Cl)cccc2C(F)(F)F)C(F)(F)F)cnn1-c1ccc(F)cc1` (single isomer, unassigned) [Example 44 Enantiomer 1, 5-Amino-N-{2-[({[2-chloro-6-(trifluoromethyl)phenyl]carbonyl}amino)methyl]-3,3,3-trifluoro-2-hydroxypropyl}-1-(4-fluorophenyl)-1H-pyrazole-4-carboxamide], the IC50 was not above 316 nM.

Regarding `Nc1c(C(=O)NCC(O)(CNC(=O)c2c(Br)cccc2C(F)(F)F)C(F)(F)F)cnn1-c1ccc(F)cc1` (single isomer, unassigned) [Example 45 Enantiomer 1, 5-Amino-N-{2-[({[2-bromo-6-(trifluoromethyl)phenyl]carbonyl}amino)methyl]-3,3,3-trifluoro-2-hydroxypropyl}-1-(4-fluorophenyl)-1H-pyrazole-4-carboxamide], the IC50 is not above 316 nM.

Take `Nc1c(C(=O)NCC(O)(CNC(=O)c2c(F)cccc2OC(F)F)C(F)(F)F)cnn1-c1ccc(F)cc1` (single isomer, unassigned) [Example 48 Enantiomer 1, 5-Amino-N-(2-{[({2-[(difluoromethyl)oxy]-6-fluorophenyl}carbonyl)amino]methyl}-3,3,3-trifluoro-2-hydroxypropyl)-1-(4-fluorophenyl)-1H-pyrazole-4-carboxamide]: the IC50 was not above 316 nM.
